For orientation: pIC50 means the IC50 on a negative log10 scale, so that one unit is a factor of ten.

The structures appear in SMILES notation. pIC50: −log10 of the molar value.

The target in the assay is Squalene synthase (Candida albicans). Briefly: Compound was tested for in vitro inhibitory activity against Candida albicans 2005E microsomal SQS.

In the case of `CC[C@H](C)C[C@H](C)CCC(=O)O[C@@H]1[C@@H](O)[C@@]2(CCC(C)[C@H](OC(C)=O)[C@@H](C)Cc3ccccc3)O[C@H](C(=O)O)[C@@](O)(C(=O)O)[C@]1(C(=O)O)O2` (stereo partly drawn) [(1S,3S,4S,5R,6R,7R)-1-((4S,5S)-4-Acetoxy-3,5-dimethyl-6-phenyl-hexyl)-6-((4R,6S)-4,6-dimethyl-octanoyloxy)-4,7-dihydroxy-2,8-dioxa-bicyclo[3.2.1]octane-3,4,5-tricarboxylic acid], the pIC50 is 8.15.

`CC(CC[C@]12O[C@H](C(=O)O)[C@@](O)(C(=O)O)[C@](C(=O)O)(O1)[C@H](O)[C@H]2O)C[C@@H](C)Cc1ccccc1` (stereo partly drawn) [(1S,3S,4S,5R,6R,7R)-1-((R)-3,5-Dimethyl-6-phenyl-hexyl)-4,6,7-trihydroxy-2,8-dioxa-bicyclo[3.2.1]octane-3,4,5-tricarboxylic acid] gave a negative logarithm of the IC50 (pIC50) of 6.70.

For the origin of these results see BindingDB's records for doi:10.1021/jm00046a011 (Glaxo Research and Development, 1994).
